Experimental findings from US9216220B2, “Compositions and methods for thermo-sensitive nanoparticles and magnetic nanoparticles” (BOARD OF REGENTS, THE UNIVERSITY OF TEXAS SYSTEM, priority 2008, dated 2015) are described below.

Each structure is given as a SMILES string.

In this data set the test system is Prostate cancer cells (i.e., JHU31). Put plainly: Cancer cell viability, MTS assay, DOX-loaded nanoparticles. It is filed as cell-based. The note with it: 37° C., 24 hours; nanoparticles 500 μg/ml. Here is the method: In order to investigate the pharmacological activity of the in vitro released DOX from the functionalized copolymer magnetic nanoparticles, cancer cell viability was conducted using MTS assays (Promega) according to the manufacturer's instruction. Prostate cancer cells (i.e., JHU31) were cultured to confluence, harvested by trypsinization, and dispersed in RPMI supplemented with 10% serum and 1% penicillin-streptomycin. Cells were seeded at a density of approximately 10,000 cells/well in 24-well plates for 24 hours at 37° C., and then were then incubated with nanoparticles, DOX-loaded nanoparticles, and free DOX. The concentration of functionalized copolymer magnetic nanoparticles and DOX-loaded functionalized copolymer magnetic nanoparticles was 500 μg/ml. This nanoparticle concentration was selected according to drug release results from the nanoparticles indicated above and the optimal inhibition dose of DOX on prostate cancer cell growth studies. The prostate cancer cells were incubated with each group at 37° C., 41° C., and temperature cycles between 37° C. and 41° C. (one hour at each temperature for one cycle) for 24 hours.

Take `COc1cccc2c1C(=O)c1c(O)c3c(c(O)c1C2=O)C[C@@](O)(C(=O)CO)C[C@@H]3O[C@H]1C[C@H](N)[C@H](O)[C@H](C)O1` [DOX, doxorubicin]: the “cell viability in comparison to the control” value was found to be 20%.
